According to patent US7291734B2, “N-sulfonylaminothiazole” (Novartis AG, priority 2002, dated 2007):

Legend:
steroid sulfatase [1] = target: T1, steroid sulfatase (Homo sapiens, UniProt P08842); experiment: Assay of human steroid sulfatase (4-methylumbelliferyl sulfate cleavage, fluorescence); assay type: biochemical; set-up: Human placenta is obtained freshly after delivery and stripped of membranes and connective tissues; from tissue; host or cells: human placenta (microsomes, Triton X-100 extract, chromatographically purified); details: purified human placental steroid sulfatase; 4-methylumbelliferyl sulfate substrate; 37° C., 1 hour
T1 sequence (P08842 22-583): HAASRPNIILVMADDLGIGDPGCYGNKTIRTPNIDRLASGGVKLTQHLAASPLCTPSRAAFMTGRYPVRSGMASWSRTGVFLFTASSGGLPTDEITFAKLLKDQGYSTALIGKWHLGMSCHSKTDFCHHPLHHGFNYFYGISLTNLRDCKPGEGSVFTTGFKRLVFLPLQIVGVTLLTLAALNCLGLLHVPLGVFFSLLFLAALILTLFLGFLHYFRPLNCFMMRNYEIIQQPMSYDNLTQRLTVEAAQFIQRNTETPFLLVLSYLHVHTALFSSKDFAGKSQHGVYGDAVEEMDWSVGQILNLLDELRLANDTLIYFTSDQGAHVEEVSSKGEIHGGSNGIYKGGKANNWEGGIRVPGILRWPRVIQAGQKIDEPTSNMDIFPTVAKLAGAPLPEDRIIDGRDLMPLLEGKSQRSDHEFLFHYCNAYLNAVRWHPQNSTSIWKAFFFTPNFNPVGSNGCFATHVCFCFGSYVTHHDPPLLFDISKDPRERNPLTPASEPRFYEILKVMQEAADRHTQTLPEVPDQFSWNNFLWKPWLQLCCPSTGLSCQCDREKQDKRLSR
Procedure: Human placenta is obtained freshly after delivery and stripped of membranes and connective tissues. For storage, the material is frozen at −70° C. After thawing, all further steps are carried out at 4° C., while pH values are adjusted at 20° C. 400 g of the tissue is homogenized in 1.2 l of buffer A (50 mM Tris-HCl, pH 7.4, 0.25 M sucrose). The homogenate obtained is centrifuged at 10,000×g for 45 minutes. The supernatant is set aside and the pellet obtained is re-homogenized in 500 ml of buffer A. After centrifugation, the two supernatants obtained are combined and subjected to ultracentrifugation (100,000×g, 1 hour). The pellet obtained is resuspended in buffer A and centrifugation is repeated. […]
It is known that purified human steroid sulfatase not only is capable to cleave steroid sulfates, but also readily cleaves aryl sulfates such as 4-methylumbelliferyl sulfate which is used in the present test system as an activity indicator. […]
Plates are incubated at 37° C. for 1 hour. […] Fluorescence intensity is determined in a Titertek Fluoroskan II instrument with λex=355 nm and λem=460 nm. […]
[formula] wherein I100 is the intensity observed in the absence of inhibitor and s is a slope factor. Estrone sulfamate is used as a reference compound and its IC50 value is determined in parallel to all other test compounds. […]

steroid sulfatase [2] = target: T1, steroid sulfatase; experiment: Assay using human skin homogenate (DHEAS cleavage); assay type: biochemical; set-up: Frozen specimens of human cadaver skin (about 100 mg per sample) are minced into small pieces; from tissue; host or cells: human cadaver skin, minced, in Triton X-100 buffer; details: human cadaver skin homogenate; [3H]DHEAS substrate; 18 hrs at 37° C.
Procedure: Frozen specimens of human cadaver skin (about 100 mg per sample) are minced into small pieces (about 1×1 mm) using sharp scissors. The pieces obtained are suspended in ten volumes (w/w) of buffer (20 mM Tris-HCl, pH 7.5), containing 0.1% Triton X-100. Test compounds (e.g. compounds of the present invention or compounds for use in the present invention) are added at graded concentrations from stock solutions in ethanol or DMSO. Second, DHEAS as the substrate is added (1 μC/ml [^3H]DHEAS, specific activity: about 60 Cl/mmol, and 20 μM unlabeled DHEAS). Samples are incubated for 18 hrs at 37° C. At the end of the incubation period, 50 μl of 1 M Tris, pH 10.4 and 3 ml of toluene are added. A 1-ml aliquot of the organic phase is removed and subjected to liquid scintillation counting. The determined dpm-values in the aliquots are converted to nmol of DHEA cleaved per g of skin per hour.

For CC12CCC3c4ccc(OS(N)(=O)=O)cc4CCC3C1CCC2=O (centres unmarked) [estrone sulfamate], the IC50 (steroid sulfatase [1]) was about 60 nM.
For “2-[2-(3,5-Bis-trifluoromethyl-benzenesulfonylamino)-6,7-dihydro-4H-thiazolo-[5,4-c]pyridin-yl]4-trifluoromethyl-benzamide [Example 1]”, the IC50 (steroid sulfatase [2]) was 160 nM.
